# System: ovariectomized rats
# Experiment: Inhibitory effect on the increase of urinary hydroxyproline excretion by ovariectomy (Test Example 1)
# Assay type: in vivo, SD strain rats
# Conditions: Rattus norvegicus, po, 336 h; ovariectomized female SD rats; test compound 10 mg/kg suspended in 0.3% Tween, orally once a day for two weeks; 24 h urine, hydroxyproline/creatinine molar ratio; versus ovariectomized control and sham-operated rats; read-out: Inhibition rate of increase of the amount of urinary hydroxyproline excretion
# Protocol: The inhibitory effect of the compounds of the present application on bone resorption was determined by their inhibitory effect on the excretion of urinary hydroxyproline which is elevated by ovariectomy of the animals tested, according to the report of Kalu et al. [Bone and Mineral., 14, 175 (1991)].
# Test Example 1: Inhibitory effect on the increase of urinary hydroxyproline excretion by ovariectomy
# 12-weeks-old female SD strain rats (Japan Clea Co., Ltd.) were acclimated for 1 week during which they were given tap water and a standard diet (F2; Funabashi Farmas) ad libitum. The experiment was carried out using the rats weighing 270-310 g. After the animals were subjected to sham operation or bilateral ovariectomy, they were allowed free access to water passed through ion exchange resin instead of tap water, and were housed in individual cages. The test compound (10 mg/kg) was suspended in 0.3% Tween, and the obtained suspension was orally administered to the ovariectomized rats once a day for two weeks starting from the day following ovariectomy (0.5 ml/100 g body weight). 0.3% Tween was similarly administered to sham-operated rats and ovariectomized control rats. After the final administration, the rats were placed in individual metabolic cages and fasted during 24 hours, and urine was collected. The volume of the collected urine was measured and the urine was centrifuged at 3,000 rpm for 15 min at 4°C. The concentration of hydroxyproline in the supernatant was measured by the method of Ikeda et al. [Ann. Rep. Tokyo Metr. Res. Lab. P. H., 36, 277-282 (1985)] and the concentration of creatinine in the supernatant was measured with creatinine test WAKO (Wako Pure Chem.) The amount of urinary hydroxyproline excretion was expressed by the molar ratio of the amount of hydroxyproline to the amount of creatinine. The rate of inhibition on increase of the amount of urinary hydroxyproline excretion in ovariectomized rats treated with the test compound compared to that of the control group was calculated using the following equation. Inhibition rate (%) = [(P1 - P2)/(P1 - P3)] x 100 [formula] • P1 : The amount of urinary hydroxyproline excretion in ovariectomized rats treated with 0.3% Tween (µmol/mmol). • P2 : The amount of urinary hydroxyproline excretion in ovariectomized rats treated with the test compound (µmol/mmol). • P3 : The amount of urinary hydroxyproline in sham-operated rats treated with 0.3% Tween (µmol/mmol).
row,Compound,inhibition in vivo at 10 mg/kg
1,"CN(C)CCn1c(C(=O)NCc2ccncc2)c(C(c2ccc(O)cc2)c2ccc(O)cc2)c2ccccc21 [Compound 30, N-(4-Pyridylmethyl)-3-[bis(4-hydroxyphenyl)methyl]-1-(2-dimethylaminoethyl)indole-2-carboxamide]",100%
2,"CN(C)CCn1c(C(=O)NCC2CCCO2)c(C(c2ccc(O)cc2)c2ccc(O)cc2)c2ccccc21 (stereo not drawn) [Compound 37, N-(2-Tetrahydrofuranylmethyl)-3-[bis(4-hydroxyphenyl)methyl]-1-(2-dimethylaminoethyl)indole-2-carboxamide]",100%
3,"CN(C)CCn1c(C(=O)NCCCN2CCOCC2)c(C(c2ccc(O)cc2)c2ccc(O)cc2)c2ccccc21 [Compound 27, N-(3-Morpholinopropyl)-3-[bis(4-hydroxyphenyl)methyl]-1-(2-dimethylaminoethyl)indole-2-carboxamide]",30%
4,"CN(C)CCn1c(C(=O)NCc2cccnc2)c(C(c2ccc(O)cc2)c2ccc(O)cc2)c2ccccc21 [Compound 29, N-(3-Pyridylmethyl)-3-[bis(4-hydroxyphenyl)methyl]-1-(2-dimethylaminoethyl)indole-2-carboxamide]",30%
5,"CN(C)CCn1c(C(=O)NCCC2CCCN2C)c(C(c2ccc(O)cc2)c2ccc(O)cc2)c2ccccc21 (stereo not drawn) [Compound 34, N-[2-(1-Methyl-2-pyrrolidinyl)ethyl]-3-[bis(4-hydroxyphenyl)methyl]-1-(2-dimethylaminoethyl)indole-2-carboxamide]",100%
6,"CN(C)CCn1c(C(=O)NCCN2CCCCC2)c(C(c2ccc(O)cc2)c2ccc(O)cc2)c2ccccc21 [Compound 25, N-(2-Piperidinoethyl)-3-[bis(4-hydroxyphenyl)methyl]-1-(2-dimethylaminoethyl)indole-2-carboxamide]",100%
7,"CN(C)CCN(C)C(=O)c1c(C(c2ccc(O)cc2)c2ccc(O)cc2)c2ccccc2n1CCN(C)C [Compound 22, N-(2-Dimethylaminoethyl)-N-methyl-3-[bis(4-hydroxyphenyl)methyl]-1-(2-dimethylaminoethyl)indole-2-carboxamide]",100%
8,"CN(C)CCn1c(C(=O)NCCc2ccncc2)c(C(c2ccc(O)cc2)c2ccc(O)cc2)c2ccccc21 [Compound 32, N-[2-(4-Pyridyl)ethyl]-3-[bis(4-hydroxyphenyl)methyl]-1-(2-dimethylaminoethyl)indole-2-carboxamide]",100%
9,"CCN1CCCC1CNC(=O)c1c(C(c2ccc(O)cc2)c2ccc(O)cc2)c2ccccc2n1CCN(C)C (stereo not drawn) [Compound 33, N-[(1-Ethyl-2-pyrrolidinyl)methyl]-3-[bis(4-hydroxyphenyl)methyl]-1-(2-dimethylaminoethyl)indole-2-carboxamide]",100%

# Reference: patent EP0782988A1, “INDOLE DERIVATIVES” (KYOWA HAKKO KOGYO CO., LTD., priority 1995, dated 1997)
